Data: patent publication US4892883A, “Pharmaceutical compositions containing bilobalide for the treatment of neuropathies Ai” (Willman - Schwabe GmbH & Co., priority 1973, dated 1990)
Where two headings read alike, the source gives them in different places.

Tests used:
[1] = test system: spontaneous climbing behaviour (SCB) of mice; assay: Spontaneous climbing behaviour (SCB) of mice (Table X); format: in vivo, mouse (NMRI); details: for influence of antagonists on the SCB activity of extract and Physostigmine: Scopolamine, Sulpiride, Naloxone, other receptor antagonists; for Mean climbing score, animal: M ± SD
Description: In one of these experiments the influence of the extract on the spontaneous climbing behaviour (SCB) was examined according to the method described by Marcais et al. (Psychopharmacology; 56, 233-234, 1978).
*The substances were applied 20 min before the observation period (30
min). In the combination experiments, the second substance was
administered 5 min before the first substance.

[2] = test system: Oxotremorine induced hypothermia, tremor and salivation in mice; assay: Oxotremorine induced hypothermia, tremor and salivation (Table XIII); format: in vivo, mouse (NMRI); details: for Hypothermia: M ± SD
Description: (§1) The analgesia tests were carried out according to the hotplate test (J. Pharm. Pharmacol., 9, 381, 1957) and the tests for hypothermia, tremor and salivation according to the method described by Gouret (J. Pharmacol., 4, 105-128, 1973). Subsequently, the mice were treated with extract and Physostigmine etc., in a manner similar to the method described above in connection with the hypoxia tests.

mice [3] = assay: Influence on anti-hypoxic effects of Pilocarpine and Physostigmine (Table XI); format: in vivo, mouse (NMRI); details: for Survival time, treated animals: M ± SEM
Description: The protective actions of the extract against hypoxia were compared in a Hypobare-Hypoxia model, according to a method described by Nakanishi et al (Life Sci 13, 467-478, 1973). 4 mice (2 control animals and 2 treated animals) were put into a vacuum desiccator (3.51). A negative pressure of 170 mmHg was generated therein within 20 sec. The survival times of the animals under these hypoxia conditions were determined. The test substance was administered intraperitoneally in an aqueous solution 30 min before the experiment began. The control animals were only treated with solvents. The maximum observation period of the survival times was 8 min. The survival time of the treated animals tolerating the hypoxia condition longer than this period was assumed to be 480 sec. None of the control animals survived longer than 180 sec. The percentage of the treated animals surviving longer than 3 min was defined as %-effect of the extract.
The anti-hypoxic effects of the cholinomimetics Pilocarpine and the acetylcholine-esterase inhibitor Physostigmine entering the brain are known. […] The method applied for these experiments was similar to the above-described Hypobare-Hypoxia model. Groups of mice were treated orally with an aqueous suspension of the extract (or with water). Pilocarpine and Physostigmine, respectively (or water) were administered 30 min later. The hypoxia tests were carried out 30 min after the second application.

mice [4] = assay: Analgetic effect, hotplate test (Table XII); format: in vivo, mouse (NMRI); details: for Latent period: M ± SD
Description: as §1
A The percentage of animals having a latent period of more than 60 sec.

brain and nerves [5] = details: brain of many species, including humans; cited from earlier work
brain and nerves [6] = details: brain of various species; cited from earlier work
[7] = Test 1, Physostigmine 0.1 mg/kg s.c.
[8] = Test 1, Physostigmine 0.2 mg/kg s.c.

## C=CCN1CC[C@]23c4c5ccc(O)c4O[C@H]2C(=O)CC[C@@]3(O)[C@H]1C5 [Naloxone]
[1]
  influence of antagonists on the SCB activity of extract and Physostigmine: do not influence the effects of Physostigmine and the extract

## O=C1CCCN1CC#CCN1CCCC1 [Oxotremorine]
[2]; Oxotremorine 0.1 mg/kg i.p.
  Salivation: 60%
  Tremor: 0%
  Hypothermia: 2.5 ± 0.82 °C
[2]; Oxotremorine 0.2 mg/kg i.p.
  Salivation: 100%
  Tremor: 50%
  Hypothermia: 5.23 ± 1.19 °C

## CNC(=O)Oc1ccc2c(c1)[C@]1(C)CCN(C)[C@@H]1N2C [Physostigmine]
[1]
  influence of antagonists on the SCB activity of extract and Physostigmine: inhibited only by specific anti-cholinergic agents entering the brain, such as Scopolamine and not influenced by antagonists to other receptors
[1]; Test II, 0.10 mg/kg s.c.
  Mean climbing score, animal: 1.39 ± 0.92
[1]; Test III, 0.025 mg/kg s.c.
  Mean climbing score, animal: 5.75 ± 1.28
[1]; Test III, 0.05 mg/kg s.c.
  Mean climbing score, animal: 3.88 ± 2.23
[1]; words
  influence on SCB of mice: reduces the SCB of mice
Mice [3]; Physostigmine 0.2 mg/kg i.p.
  % effect: 20%
Mice [3]; Physostigmine 0.2 mg/kg i.p., control 80.6 ± 9.64
  Survival time, treated animals: 190.63 ± 26.2 s
Mice [4]; [7]
  % effect (animals with latent period of more than 60 sec): 10%
  Latent period: 31.1 ± 13.9 s
Mice [4]; [8]
  % effect (animals with latent period of more than 60 sec): 50%
  Latent period: 44.1 ± 17.69 s

## CC[C@@H]1C(=O)OC[C@@H]1Cc1cncn1C [Pilocarpine]
Mice [3]; Pilocarpine 2 mg/kg i.p.
  % effect: 30%
Mice [3]; Pilocarpine 2 mg/kg i.p., control 86.7 ± 6.82
  Survival time, treated animals: 178.6 ± 24.8 s
Mice [4]; Test 2, Pilocarpine 5 mg/kg s.c.
  % effect (animals with latent period of more than 60 sec): 10%
Mice [4]; Test 2, Pilocarpine 5 mg/kg s.c., control 15.74 ± 3.47
  Latent period: 24.9 ± 13.32 s

## CN1[C@@H]2C[C@@H](OC(=O)[C@H](CO)c3ccccc3)C[C@H]1[C@@H]1O[C@@H]12 [Scopolamine]
[1]; Test II, 0.25 mg/kg i.p.
  Mean climbing score, animal: 6.63 ± 1.42

## CCN1CCCC1CNC(=O)c1cc(S(N)(=O)=O)ccc1OC (centres unmarked) [Sulpiride]
[1]
  influence of antagonists on the SCB activity of extract and Physostigmine: do not influence the effects of Physostigmine and the extract

## Oc1c(Cl)cc(Cl)c(Cl)c1Cc1c(O)c(Cl)cc(Cl)c1Cl [hexachlorophene, 2,2'-methylene-bis(3,4,6-trichlorophenol)]
Brain and nerves [5]
  neurotoxic effect: produces oedematous damage in the brain of many species, including humans

## C[CH2][Sn]([Cl])([CH2]C)[CH2]C [triethyltin chloride]
Brain and nerves [6]
  neurotoxic effect: brings about an increase in the water content in the brain of various species and induces specific myelopathy in the nerves
